Measurements from patent US8394952B2 (Vertex Pharmaceuticals Incorporated, priority 2006, dated 2013).
pKi: −log10 of the molar value.

Biological target: Plk1 (Homo sapiens, UniProt P53350)
Assay: biochemical

Plk1, sequence (P53350 20-338): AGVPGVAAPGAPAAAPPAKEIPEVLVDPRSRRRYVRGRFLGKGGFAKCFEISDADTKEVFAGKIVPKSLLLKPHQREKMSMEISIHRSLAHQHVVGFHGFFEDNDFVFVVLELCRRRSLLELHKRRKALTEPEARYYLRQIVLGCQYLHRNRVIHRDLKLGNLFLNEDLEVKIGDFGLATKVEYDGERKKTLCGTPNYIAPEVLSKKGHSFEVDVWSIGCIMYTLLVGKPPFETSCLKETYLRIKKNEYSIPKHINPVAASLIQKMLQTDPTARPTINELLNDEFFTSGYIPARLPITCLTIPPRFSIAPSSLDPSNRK

Structure (SMILES)	pKi
COc1cc(C(=O)NC2CCN(C)CC2)ccc1Nc1ncc2c(n1)N(C1CCCC1)CC1(CCC1)C(=O)N2C [Compound I-64, 4-(9′-cyclopentyl-5′-methyl-6′-oxo-5′,6′,8′,9′-tetrahydrospiro[cyclobutane-1,7′-pyrimido[4,5-b][1,4]diazepine]-2′-ylamino)-3-methoxy-N-(1-methylpiperidin-4-yl)benzamide]	> 8.00
COc1cc(C(=O)N[C@@H](C)CO)ccc1Nc1ncc2c(n1)N(C1CCCC1)CC(C)(C)C(=O)N2C [Compound I-265]	> 8.00
CN1C(=O)C(C)(C)CN(C2CCCC2)c2nc(Nc3ccccc3)ncc21 [Compound I-90, 9-cyclopentyl-8,9-dihydro-5,7,7-trimethyl-2-(phenylamino)-5H-pyrimido[4,5-b][1,4]diazepin-6(7H)-one]	7.00 to 8.00
COc1cc(C(=O)N[C@H]2CCOC2)ccc1Nc1ncc2c(n1)N(C1CCCC1)C[C@@H](C)C(=O)N2C [Compound I-183, 4-((R)-9-cyclopentyl-5,7-dimethyl-6-oxo-6,7,8,9-tetrahydro-5H-pyrimido[4,5-b][1,4]diazepin-2-ylamino)-3-methoxy-N—((S)-tetrahydrofuran-3-yl)benzamide]	> 8.00
COc1cc(C(=O)N[C@@H]2CCCC[C@H]2O)ccc1Nc1ncc2c(n1)N(C1CCCC1)CC(C)(C)C(=O)N2C [Compound I-268, 4-(9-cyclopentyl-5,7,7-trimethyl-6-oxo-6,7,8,9-tetrahydro-5H-pyrimido[4,5-b][1,4]diazepin-2-ylamino)-N-((1R,2R)-2-hydroxycyclohexyl)-3-methoxybenzamide]	> 8.00
CNC(=O)c1ccc(Nc2ncc3c(n2)N([C@H]2CCOC2)CC(C)(C)C(=O)N3C)c(OC)c1 [Compound I-180, 4-(6,7,8,9-tetrahydro-9-((S)-tetrahydrofuran-3-yl)-5,7,7-trimethyl-6-oxo-5H-pyrimido[4,5-b][1,4]diazepin-2-ylamino)-3-methoxy-N-methylbenzamide]	> 8.00
COc1cc(C(=O)NC2CC2)ccc1Nc1ncc2c(n1)N(C1CCCC1)C[C@@H](C)C(=O)N2C [Compound I-184, (R)-4-(9-cyclopentyl-5,7-dimethyl-6-oxo-6,7,8,9-tetrahydro-5H-pyrimido[4,5-b][1,4]diazepin-2-ylamino)-N-cyclopropyl-3-methoxybenzamide]	> 8.00
COCCNC(=O)c1ccc(Nc2ncc3c(n2)N(C2CCCC2)CC(C)(C)C(=O)N3C)c(OC)c1 [Compound I-197, 4-(9-cyclopentyl-5,7,7-trimethyl-6-oxo-6,7,8,9-tetrahydro-5H-pyrimido[4,5-b][1,4]diazepin-2-ylamino)-3-methoxy-N-(2-methoxyethyl)benzamide]	> 8.00
CN1C(=O)C(C)(C)CN(C2CCCC2)c2nc(Nc3ccc4cn[nH]c4c3)ncc21 [Compound I-47, 2-(1H-indazo-6-ylamino)-9-cyclopentyl-8,9-dihydro-5,7,7-trimethyl-5H-pyrimido[4,5-b][1,4]diazepin-6(7H)-one]	> 8.00
COc1cc(C(=O)NC2CCCC2)ccc1Nc1ncc2c(n1)N(C1CCCC1)CC1(CC1)C(=O)N2C [Compound I-176, N-cyclopentyl-4-(9′-cyclopentyl-5′-methyl-6′-oxo-5′,6′,8′,9′-tetrahydrospiro[cyclopropane-1,7′-pyrimido[4,5-b][1,4]diazepine]-2′-ylamino)-3-methoxybenzamide]	> 8.00
COc1cc(C(=O)Nc2cccnc2)ccc1Nc1ncc2c(n1)N(C1CCCC1)CC(C)(C)C(=O)N2C [Compound I-207, 4-(9-cyclopentyl-5,7,7-trimethyl-6-oxo-6,7,8,9-tetrahydro-5H-pyrimido[4,5-b][1,4]diazepin-2-ylamino)-3-methoxy-N-(pyridin-3-yl)benzamide]	> 8.00
COc1ccc(NC(C)=O)cc1Nc1ncc2c(n1)N(C1CCCC1)CC(C)(C)C(=O)N2C [Compound I-158, N-(3-(9-cyclopentyl-6,7,8,9-tetrahydro-5,7,7-trimethyl-6-oxo-5H-pyrimido[4,5-b][1,4]diazepin-2-ylamino)-4-methoxyphenyl)acetamide]	> 8.00
COc1cc(C(=O)N[C@H](C)c2ccccc2)ccc1Nc1ncc2c(n1)N(C1CCCC1)CC(C)(C)C(=O)N2C [Compound I-226, (R)-4-(9-cyclopentyl-5,7,7-trimethyl-6-oxo-6,7,8,9-tetrahydro-5H-pyrimido[4,5-b][1,4]diazepin-2-ylamino)-3-methoxy-N-(1-phenylethyl)benzamide]	> 8.00
COc1cc(C(=O)NC(C)(C)CO)ccc1Nc1ncc2c(n1)N(C1CCCC1)CC(C)(C)C(=O)N2C [Compound I-240, 4-(9-cyclopentyl-5,7,7-trimethyl-6-oxo-6,7,8,9-tetrahydro-5H-pyrimido[4,5-b][1,4]diazepin-2-ylamino)-N-(1-hydroxy-2-methylpropan-2-yl)-3-methoxybenzamide]	> 8.00
CN1C(=O)C(C)(C)CN(C2CCCC2)c2nc(Nc3cccn4ncnc34)ncc21 [Compound I-92, 2-([1,2,4]triazolo[1,5-a]pyridin-8-ylamino)-9-cyclopentyl-8,9-dihydro-5,7,7-trimethyl-5H-pyrimido[4,5-b][1,4]diazepin-6(7H)-one]	7.00 to 8.00
COc1cc(C(=O)NCC2CCCC2)ccc1Nc1ncc2c(n1)N(C1CCCC1)CC(C)(C)C(=O)N2C [Compound I-230, 4-(9-cyclopentyl-5,7,7-trimethyl-6-oxo-6,7,8,9-tetrahydro-5H-pyrimido[4,5-b][1,4]diazepin-2-ylamino)-N-(cyclopentylmethyl)-3-methoxybenzamide]	> 8.00
COc1cc(C(=O)NCc2ccncc2)ccc1Nc1ncc2c(n1)N(C1CCCC1)CC1(CC1)C(=O)N2C [Compound I-247, 4-(9′-cyclopentyl-5′-methyl-6′-oxo-5′,6′,8′,9′-tetrahydrospiro[cyclopropane-1,7′-pyrimido[4,5-b][1,4]diazepine]-2′-ylamino)-3-methoxy-N-(pyridin-4-ylmethyl)benzamide]	> 8.00
CCNC(=O)c1ccc(Nc2ncc3c(n2)N(C2CCCC2)CC(C)(C)C(=O)N3C)c(OC)c1 [Compound I-219, 4-(9-cyclopentyl-5,7,7-trimethyl-6-oxo-6,7,8,9-tetrahydro-5H-pyrimido[4,5-b][1,4]diazepin-2-ylamino)-N-ethyl-3-methoxybenzamide]	> 8.00
COc1cc(C(=O)Nc2cccnc2OC)ccc1Nc1ncc2c(n1)N(C1CCCC1)CC(C)(C)C(=O)N2C [Compound I-228, 4-(9-cyclopentyl-5,7,7-trimethyl-6-oxo-6,7,8,9-tetrahydro-5H-pyrimido[4,5-b][1,4]diazepin-2-ylamino)-3-methoxy-N-(2-methoxypyridin-3-yl)benzamide]	> 8.00
COc1cc(C(=O)NC2CN(C)C2)ccc1Nc1ncc2c(n1)N(C1CCCC1)CC(C)(C)C(=O)N2C [Compound I-25, 4-(9-cyclopentyl-6,7,8,9-tetrahydro-5,7,7-trimethyl-6-oxo-5H-pyrimido[4,5-b][1,4]diazepin-2-ylamino)-3-methoxy-N-(1-methylazetidin-3-yl)benzamide]	> 8.00
CCCNC(=O)c1ccc(Nc2ncc3c(n2)N(C2CCCC2)CC(C)(C)C(=O)N3C)c(OC)c1 [Compound I-218, 4-(9-cyclopentyl-5,7,7-trimethyl-6-oxo-6,7,8,9-tetrahydro-5H-pyrimido[4,5-b][1,4]diazepin-2-ylamino)-3-methoxy-N-propylbenzamide]	> 8.00
COc1cc(C(=O)NC2CC(C)(C)N(C)C(C)(C)C2)ccc1Nc1ncc2c(n1)N(C1CCCC1)CC(C)(C)C(=O)N2C [Compound I-68, 4-(9-cyclopentyl-6,7,8,9-tetrahydro-5,7,7-trimethyl-6-oxo-5H-pyrimido[4,5-b][1,4]diazepin-2-ylamino)-3-methoxy-N-(1,2,2,6,6-pentamethylpiperidin-4-yl)-benzamide]	> 8.00
COc1cc(C(=O)NC[C@H](C)O)ccc1Nc1ncc2c(n1)N(C1CCCC1)CC(C)(C)C(=O)N2C [Compound I-270, (S)-4-(9-cyclopentyl-5,7,7-trimethyl-6-oxo-6,7,8,9-tetrahydro-5H-pyrimido[4,5-b][1,4]diazepin-2-ylamino)-N-(2-hydroxypropyl)-3-methoxybenzamide]	> 8.00
COc1cc(C(=O)NC2CCOCC2)ccc1Nc1ncc2c(n1)N(C1CCCC1)CC1(CC1)C(=O)N2C [Compound I-177, 4-(9′-cyclopentyl-5′-methyl-6′-oxo-5′,6′,8′,9′-tetrahydrospiro[cyclopropane-1,7′-pyrimido[4,5-b][1,4]diazepine]-2′-ylamino)-3-methoxy-N-(tetrahydro-2H-pyran-4-yl)benzamide]	> 8.00
COc1cc(C(=O)NC[C@H](O)CO)ccc1Nc1ncc2c(n1)N(C1CCCC1)CC(C)(C)C(=O)N2C [Compound I-242, (S)-4-(9-cyclopentyl-5,7,7-trimethyl-6-oxo-6,7,8,9-tetrahydro-5H-pyrimido[4,5-b][1,4]diazepin-2-ylamino)-N-(2,3-dihydroxypropyl)-3-methoxybenzamide]	> 8.00
CN1C(=O)C(C)(C)CN(C2CCCC2)c2nc(Nc3ccc4c(cnn4C)c3)ncc21 [Compound I-110, 2-(1-methyl-1H-indazol-5-ylamino)-9-cyclopentyl-8,9-dihydro-5,7,7-trimethyl-5H-pyrimido[4,5-b][1,4]diazepin-6(7H)-one]	7.00 to 8.00
CNC(=O)c1ccc(Nc2ncc3c(n2)N(C2CCCC2)[C@@H]2CCC[C@@H]2C(=O)N3C)c(OC)c1 [Compound I-15, 4-((3aR,10aS)-4-cyclopentyl-9-methyl-10-oxo-1,2,3,3a,4,9,10,10a-octahydro-4,5,7,9-tetraaza-benzo[f]azulen-6-ylamino)-3-methoxy-N-methylbenzamide]	7.00 to 8.00
COc1cc(C(=O)NCCCOC(C)=O)ccc1Nc1ncc2c(n1)N(C1CCCC1)CC(C)(C)C(=O)N2C [Compound I-273, 3-(4-(9-cyclopentyl-5,7,7-trimethyl-6-oxo-6,7,8,9-tetrahydro-5H-pyrimido[4,5-b][1,4]diazepin-2-ylamino)-3-methoxybenzamido)propyl acetate]	> 8.00
CN1C(=O)C(C)(C)CN(C2CCCC2)c2nc(Nc3ccc4c(c3)C(=O)C(=O)N4)ncc21 [Compound I-139, 5-(9-Cyclopentyl-6,7,8,9-tetrahydro-5,7,7-trimethyl-6-oxo-5H-pyrimido[4,5-b][1,4]diazepin-2-ylamino)indoline-2,3-dione]	7.00 to 8.00
